Results reported in patent publication US11129819B2, “Fumarate analogs and uses thereof” (Rigel Pharmaceuticals, Inc., priority 2014, dated 2021).
Counter-ions that a name gives are not always drawn.

Each compound was assayed on NrF2 (Nuclear factor (erythroid-derived 2)-like 2) (assay: NrF2 activation in a whole cell nuclear translocation assay). Conditions: read-out: NrF2 translocation assay EC50.
Assay type: cell-based
Description: NrF2 Activation in a Whole Cell Nuclear Translocation Assay Compounds were tested in a NrF2 (Nuclear factor (erythroid-derived 2)-like 2) translocation assay by adapting the methods set forth in U.S. Pat. No. 8,101,373, the disclosure of which is incorporated herein by reference.

EC50 [µM]	SMILES
6.1	COC(=O)/C=C/n1nnn(C(=O)N(C)C)c1=O [Compound 10, Methyl (E)-3-(4-(dimethylcarbamoyl)-5-oxo-4,5-dihydro-1H-tetrazol-1-yl)acrylate]
7.2	COC(=O)/C=C/n1nnn(C2CC2)c1=O [Compound 21, methyl (E)-3-(4-cyclopropyl-5-oxo-4,5-dihydro-1H-tetrazol-1-yl)acrylate]
7.8	COC(=O)/C=C/n1nnn(C(C)C)c1=O [Compound 6, methyl (E)-3-(4-isopropyl-5-oxo-4,5-dihydro-1H-tetrazol-1-yl)acrylate]
1	COC(=O)/C=C/n1nnn(-c2ccccc2)c1=O [Compound 16, methyl (E)-3-(5-oxo-4-phenyl-4,5-dihydro-1H-tetrazol-1-yl)acrylate]
0.7	COC(=O)/C=C/n1nnn(/C=C/C(=O)OC)c1=O [Compound 20, dimethyl 3,3′-(5-oxo-1H-tetrazole-1,4(5H)-diyl)(2E,2′E)-diacrylate]
6.7	COC(=O)/C=C/n1nnn(CC(=O)OC)c1=O [Compound 14, methyl (E)-3-(4-(2-methoxy-2-oxoethyl)-5-oxo-4,5-dihydro-1H-tetrazol-1-yl)acrylate]
61	COC(=O)/C=C/n1nn[nH]c1=O [Compound 1, methyl (E)-3-(5-oxo-4,5-dihydro-1H-tetrazol-1-yl)acrylate]
5.4	COC(=O)/C=C/n1nnn(C2CCCC2)c1=O [Compound 11, methyl (E)-3-(4-cyclopentyl-5-oxo-4,5-dihydro-1H-tetrazol-1-yl)acrylate]
10.4	COC(=O)/C=C/n1nnn(C2CCOCC2)c1=O [Compound 12, methyl (E)-3-(5-oxo-4-(tetrahydro-2H-pyran-4-yl)-4,5-dihydro-1H-tetrazol-1-yl)acrylate]

Same assay, conditions: reference fumarates, read-out: NrF2 activation EC50

EC50 [µM]	SMILES
~7.9	COC(=O)/C=C/C(=O)OC [dimethyl fumarate, reference compound]
~127	COC(=O)/C=C/C(=O)O [Monomethyl fumarate, monomethyl fumarate, reference compound]

These compounds were tested on experimental autoimmune encephalomyelitis (EAE) (assay: Autoimmune encephalitis (EAE) in vivo assay in mice). Conditions: dosed at 60 mg/kg beginning on the day of immunization, 60 mg/kg.
Parameters: species or system C57BL/6 mice

SMILES	onset of disease paralysis
COC(=O)/C=C/n1nn[nH]c1=O [Compound 1, methyl (E)-3-(5-oxo-4,5-dihydro-1H-tetrazol-1-yl)acrylate]	significantly prevented the onset of disease paralysis

Same assay, conditions: dosed at 60 mg/kg beginning on the day of immunization, listed as compound 1, 60 mg/kg

SMILES	onset of disease paralysis
COC(=O)/C=C/n1nn[nH]c1=O [Compound 1, methyl (E)-3-(5-oxo-4,5-dihydro-1H-tetrazol-1-yl)acrylate]	significantly prevents the onset of disease paralysis
